Data from PMC12213745, “Compounds from Cyclocarya paliurus leaves inhibit binary division of methicillin-resistant Staphylococcus aureus by disrupting FtsZ dynamic” (Frontiers in Microbiology, 2025).

Tests used:
SaFtsZ = molecular target: T1, SaFtsZ (Staphylococcus aureus, UniProt P0A031); experiment: FtsZ polymerization assay (A360); assay type: biochemical; conditions: 10 μM SaFtsZ; 0.25 × and 0.5 × MIC; vs DMSO control
T1 construct: purchased Cytoskeleton, Inc. FTZ02
T1 sequence (P0A031 1-390): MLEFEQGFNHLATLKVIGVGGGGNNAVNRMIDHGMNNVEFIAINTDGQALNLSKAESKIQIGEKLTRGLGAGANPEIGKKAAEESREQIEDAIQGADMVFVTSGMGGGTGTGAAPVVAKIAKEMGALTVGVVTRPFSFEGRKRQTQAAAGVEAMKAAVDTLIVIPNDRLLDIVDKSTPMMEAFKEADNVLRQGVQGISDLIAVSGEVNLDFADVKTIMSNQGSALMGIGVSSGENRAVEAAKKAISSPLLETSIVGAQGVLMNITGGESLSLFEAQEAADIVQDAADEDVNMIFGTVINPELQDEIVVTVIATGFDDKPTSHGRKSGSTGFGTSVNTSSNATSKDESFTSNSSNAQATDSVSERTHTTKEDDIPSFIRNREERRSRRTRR
Method: To assess the effects of AA, MA, and UA on FtsZ polymerization, an in vitro FtsZ polymerization assay was performed. […] Polymerization was initiated by the addition of polymerization buffer components, bringing the final concentrations to 250 mM KCl and 5 mM MgCl2 Absorbance at 360 nm (A360) was monitored for 5 min to establish a stable baseline. GTP was then added to a final concentration of 1 mM. Polymerization was tracked by measuring A360 for 30 min using a microplate reader (SpectraMax i3x, Molecular Devices, CA, USA).
To determine whether the disruptions of Z-ring were due to direct effects on FtsZ polymerization, we performed in vitro polymerization assays. FtsZ polymerization was assessed by monitoring the time-dependent increase in A360 upon induction using a microplate reader. Briefly, 10 μM SaFtsZ was pre-incubated with AA, MA, UA or DMSO, and polymerization was initiated by adding K^+, Mg^2+, and GTP.

MRSA-4 [1] = experiment: Time-dependent killing assay; assay type: cell-based, Methicillin-resistant S. aureus; conditions: for time-kill outcome at 1 × and 2 × MIC: 1 × or 2 × MIC, initial reduction within 2 h, regrowth by 24 h; for nature of antibacterial effect (time-kill assays): MRSA-4
Method: An overnight culture of MRSA-4 was diluted 1:100 in fresh MHB and incubated at 37°C with shaking (200 rpm) until reaching mid-log phase (OD600 = 0.4–0.6). The culture was then adjusted to 1 × 10^6 CFU/mL and treated with AA, MA, or UA at concentrations of 1×, 2×, and 4 × MIC. 2 × MIC of vancomycin was used as a positive control, and an equivalent volume of DMSO served as the negative control. The cultures were incubated at 37°C with shaking (200 rpm) during the assay. At designated time points (0, 1, 2, 4, 8, and 24 h), samples were collected, serially diluted tenfold in sterile PBS, and 100 μL of appropriate dilutions were plated on LB agar. Plates were incubated at 37°C for 18–24 h, and viable bacteria were quantified. All experiments were performed in biological triplicates.
We next performed time-kill kinetics assays to characterize the time-dependent antibacterial effects of AA, MA, and UA against MRSA-4. Bacterial cultures were exposed to AA, MA, and UA at 1×, 2×, and 4 × their respective MICs, and viable CFU were counted at designated time points (0, 1, 2, 4, 8, and 24 h). As shown in the time-kill curves (Figure 1), treatment with 1 × or 2 × MIC of AA, MA, or UA led to an initial reduction in bacterial load within the first 2 h.

MRSA-4 [2] = experiment: SIM analysis of Z-ring assembly (FtsZ immunostaining); assay type: cell-based, Methicillin-resistant S. aureus; conditions: 1 × MIC, 4 h
Method: MRSA-4 was cultured in MHB at 37°C to mid-logarithmic phase and subsequently treated with AA, MA, or UA at concentration of 1 × MIC, or with PBS as a control, for 4 h at 37°C. Following treatment, cells were harvested by centrifugation, washed once with PBS, and fixed with 4% (w/v) paraformaldehyde in PBS for 15 min at room temperature. Fixed cells were then washed twice with PBS. The pellets were resuspended in 90 μL GTE buffer (50 mM glucose, 25 mM Tris–HCl, pH 8.0, 10 mM EDTA) containing 10 μL lysozyme (3 mg/mL) and incubated for 3 min at room temperature. The suspension was applied onto poly-L-lysine-coated glass slides and allowed to adhere. After removing excess liquid, the slides were blocked with PBS containing 2% (w/v) BSA and 0.1% (v/v) Tween-20 for 15 min. Slides were incubated overnight at 4°C with polyclonal rabbit anti-FtsZ primary antibody, followed by three washes with PBST (PBS containing 0.1% Tween-20). Alexa Fluor 488-conjugated goat anti-rabbit IgG as the secondary antibody was then applied and incubated for 1 h at room temperature in the dark. After washing, nuclei were stained with DAPI for 3–5 min, followed by 2–3 times PBS washes to remove excess stain. Coverslips were mounted with 50% (v/v) glycerol in PBS and sealed with nail polish. Z-ring structures were visualized using structured illumination microscopy (N-SIM S, Nikon, Tokyo, Japan).
Given that septum formation is orchestrated by the FtsZ-based Z-ring, we next examined whether AA, MA, and UA affect Z-ring assembly. Structured illumination microscopy (SIM) was employed to visualize FtsZ localization in MRSA-4 cells treated with each compound at 1 × MIC for 4 h.

Structure (SMILES)	effect on FtsZ polymerization (A360) (SaFtsZ)	time-kill outcome at 1 × and 2 × MIC (MRSA-4 [1])	reduction of viable bacterial counts (MRSA-4 [1]; 4 × MIC, at/over 24 h)	nature of antibacterial effect (time-kill assays) (MRSA-4 [1])	FtsZ localization / Z-ring formation (SIM) (MRSA-4 [2])	bacterial counts (below the detection limit) (MRSA-4 [1]; 4 × MIC)	reduction of viable bacterial counts (MRSA-4 [1]; 4 × MIC, within 2 h)
CC1(C)CC[C@]2(C(=O)O)CC[C@]3(C)C(=CC[C@@H]4[C@@]5(C)C[C@@H](O)[C@H](O)C(C)(C)[C@@H]5CC[C@]43C)[C@@H]2C1 [MA, maslinic acid]	markedly inhibited FtsZ polymerization	primarily bacteriostatic activity	> 3 log10 CFU/mL	bactericides	aberrant FtsZ localization		
C[C@H]1[C@H](C)CC[C@]2(C(=O)O)CC[C@]3(C)C(=CC[C@@H]4[C@@]5(C)C[C@@H](O)[C@H](O)[C@@](C)(CO)[C@@H]5CC[C@]43C)[C@H]12 [AA, asiatic acid]	significantly enhanced FtsZ polymerization	primarily bacteriostatic activity		bactericides	aberrant FtsZ localization	< 2 log10 CFU/mL	> 3 log10 CFU/mL
C[C@H]1[C@H](C)CC[C@]2(C(=O)O)CC[C@]3(C)C(=CC[C@@H]4[C@@]5(C)CC[C@H](O)C(C)(C)[C@@H]5CC[C@]43C)[C@H]12 [UA, ursolic acid]	markedly inhibited FtsZ polymerization	primarily bacteriostatic activity	≤ 3 log10 CFU/mL	bacteriostatic	aberrant FtsZ localization		
